Measured values published in patent US10017506B2, “ATX modulating agents” (BIOGEN MA INC., priority 2012, dated 2018).

biological target: T1, Human ATX protein (Homo sapiens, UniProt Q13822); test: ATX biochemical FRET assay with FS-3 substrate; details: FRET substrate FS-3 2 μM, ATX 1.0 μg/mL, 30 minutes pre-incubation, 2 hours at room temperature; read-out: IC50
T1 construct: made in house
Excerpt: ATX (Autotaxin) is a 125 KDa glycoprotein with lysophospholipase D (LPLD) activity that generates the bioactive lipid lysophosphatidic acid (LPA) from lysophosphatidylcholine (LPC). The ATX biochemical assay utilizes a FRET (fluorescence resonance energy transfer) technology platform. The fluorescence signal of FRET substrate FS-3 is quenched due to intra-molecular FRET of a fluorophore to a non-fluorescing quencher (Ferguson, C. G., et al., Org Lett. 2006 May 11; 8(10): 2023-2026, which is incorporated by reference in its entirety). ATX catalyzes the hydrolysis of the substrate which separates the dabsyl quencher from the fluorescein reporter, which becomes fluorescent. The reaction is monitored by a SpectraMax M5 (Molecular Devices, Sunnyvale, Calif.) with at excitation wavelength 485 nm and emission wavelength […].
Fatty acid free-BSA (Sigma A8806): 10 mg/mL in H2O, stored at 4° C.
2×ATX assay buffer: 100 mM Tris, 280 mM NaCl, 10 mM KCl, 2 mM CaCl2, 2 mM MgCl2, pH 7.4.
Human ATX protein: expressed and purified in house. Stored at −80° C.
Substrate FS-3 (Echelon, L-2000): 100 μg in 77.74 μL H2O (1 mM stock), stored at −20° C.
384-well flat bottom plates—Corning #3575.
Compound dilution—All compounds were provided at 10 mM in 100% DMSO. In the first well, 2 μL of 10 mM compound was added to 78 μL of DMSO (1:40 dilution). In subsequent wells 3-fold dilution (total 10 dilutions) were performed.
1×ATX assay buffer was made up with a final concentration of 1 mg/mL fatty acid free-BSA using 2×ATX assay buffer, 10 mg/ml fatty acid free-BSA and ddH2O.
ATX protein was diluted with 1×ATX assay buffer to a concentration of 1.32 μg/mL (1.32×). 38 μL was added per well to the assay plate. The final concentration of ATX in the reaction as 1.0 μg/mL.
2 μL per well of compounds was transferred to provide the desired concentration. The plate was centrifuged, then incubated at room temperature for 30 minutes on the shaker.
Then, 10 μL was added per well to the assay plate. […] The plate was centrifuged. The plate was kept shaking at room temperature for 2 hours. Because FS-3 substrate is light sensitive, plates were kept covered and protected from light.
Fluorescence was measured using SpectraMax M5 (excitation at 485 nm/emission at 538 nm, top read).

SMILES | IC50
CC[C@H]1CC[C@@H](Oc2ccc3ccc([C@@H](C)N[C@@H]4C[C@@H](C(=O)O)C4(C)C)cc3c2C(F)(F)F)CC1 [Example 117c, (1R,3R)-3-(((R)-1-(7-((cis-4-ethylcyclohexyl)oxy)-8-(trifluoromethyl)naphthalen-2-yl)ethyl)amino)-2,2-dimethylcyclobutanecarboxylic acid] | ≤ 0.1 µM
CC(c1ccc2ccc(O[C@H]3CC[C@@H](C(F)(F)F)CC3)c(C(F)(F)F)c2c1)N1CCC[C@H](CC(=O)O)C1 (stereo partly drawn) [Example 21, ((R)-1-{1-[8-trifluoromethyl-7-(4-trifluoromethyl-cyclohexyloxy)-naphthalen-2-yl]-ethyl}-piperidin-3-yl)-acetic acid] | ≤ 0.25 µM
CCC(c1ccc2ccc(O[C@H]3CC[C@@H](C(F)(F)F)CC3)c(C(F)(F)F)c2c1)N1CCC(C(=O)O)CC1 (stereo partly drawn) [Example 45, 1-(1-(8-(trifluoromethyl)-7-((cis-4-(trifluoromethyl)cyclohexyl)oxy)naphthalene-2-yl)propyl)piperidine-4-carboxylic acid] | ≤ 0.25 µM
CC(C)(C)[C@H]1CC[C@H](Nc2cc3cc(C(=O)N[C@H]4CC[C@@H](C(=O)O)CC4)ccc3cn2)CC1 [Example 154, cis-4-(3-((trans-4-(tert-butyl)cyclohexyl)amino)isoquinoline-6-carboxamido)cyclohexane carboxylic acid] | ≤ 0.1 µM
CC(N[C@H]1C[C@@H](C(=O)O)C1(C)C)c1ccc2ccc(O[C@H]3CC[C@@H](C)CC3)c(Cl)c2c1 (relative stereo) [Example 93, Cis-3-((1-(8-chloro-7-((cis-4-methylcyclohexyl)oxy)naphthalen-2-yl)ethyl)amino)-2,2-dimethylcyclobutanecarboxylic acid] | ≤ 0.25 µM
CC[C@H]1CC[C@@H](Oc2ccc3ccc(C(C)N[C@@H]4C[C@H](C(=O)O)C4(C)C)cc3c2C(F)(F)F)CC1 (stereo partly drawn) [Example 115, (1S,3R)-3-((1-(7-((cis-4-ethylcyclohexyl)oxy)-8-(trifluoromethyl)naphthalen-2-yl)ethyl)amino)-2,2-dimethylcyclobutanecarboxylic acid] | ≤ 0.1 µM
CC[C@H]1CC[C@@H](Oc2ccc3ccc(C(C)N4CCC(C(=O)O)CC4)cc3c2C#N)CC1 (stereo partly drawn) [Example 72, 1-(1-(8-cyano-7-((cis-4-ethylcyclohexyl)oxy)naphthalen-2-yl)ethyl)piperidine-4-carboxylic acid] | ≤ 0.5 µM
CCC(N[C@H]1CC[C@@H](C(=O)O)CC1)c1ccc2ccc(O[C@H]3CC[C@@H](C(F)(F)F)CC3)c(C(F)(F)F)c2c1 (stereo partly drawn) [Example 147, cis-4-((1-(8-(trifluoromethyl)-7-((cis-4-(trifluoromethyl)cyclohexyl)oxy)naphthalen-2-yl)propyl)amino)cyclohexanecarboxylic acid] | ≤ 0.1 µM
CCC(NC1CC(C(=O)O)C1(C)C)c1ccc2ccc(O[C@H]3CC[C@@H](C)CC3)c(C(F)(F)F)c2c1 (stereo partly drawn) [Example 105, 2,2-dimethyl-3-((1-(7-((cis-4-methylcyclohexyl)oxy)-8-(trifluoromethyl)naphthalen-2-yl)propyl)amino)cyclobutanecarboxylic acid] | ≤ 0.1 µM
CC[C@H]1CC[C@@H](Oc2ccc3ccc(C(C)N4CCC[C@H](CC(=O)O)C4)cc3c2C(F)(F)F)CC1 (stereo partly drawn) [Example 58, 2-((3R)-1-(1-(7-((cis-4-ethylcyclohexyl)oxy)-8-(trifluoromethyl)naphthalen-2-yl)ethyl)piperidin-3-yl)acetic acid] | ≤ 0.25 µM
CC[C@H]1CC[C@@H](Oc2ccc3ccc(CN4CCC(C(=O)O)CC4)cc3c2C(F)(F)F)CC1 [Example 50, 1-((7-((cis-4-ethylcyclohexyl)oxy)-8-(trifluoromethyl)naphthalen-2-yl)methyl)piperidine-4-carboxylic acid] | ≤ 0.5 µM

same assay, conditions: IC50, FRET substrate FS-3 2 μM, ATX 1.0 μg/mL, 30 minutes pre-incubation, 2 hours at room temperature

SMILES | IC50
CCC(c1ccc2ccc(O[C@H]3CC[C@@H](C)CC3)c(C(F)(F)F)c2c1)N1C2CCC1CC(C(=O)O)C2 (relative stereo) [Example 18, 8-(1-(7-((cis-4-methylcyclohexyl)oxy)-8-(trifluoromethyl)naphthalen-2-yl)propyl)-8-azabicyclo[3.2.1]octane-3-carboxylic acid] | ≤ 0.25 µM
[2H]C([2H])([2H])[C@@H](c1ccc2ccc(O[C@H]3CC[C@@H](C(F)(F)F)CC3)c(C(F)(F)F)c2c1)N1C2CCC1CC(C(=O)O)C2 (stereo partly drawn) [Example 46, 8-((S)-1-(8-(trifluoromethyl)-7-((cis-4-(trifluoromethyl)cyclohexyl)oxy)naphthalen-2-yl)-2,2,2-trideuteroethyl)-8-azabicyclo[3.2.1]octane-3-carboxylic acid] | ≤ 0.1 µM
CC(c1ccc2ccc(O[C@H]3CC[C@@H](C)CC3)c(Cl)c2c1)N1C2CCC1CC(C(=O)O)C2 (stereo partly drawn) [Example 90, 8-(1-(8-chloro-7-((cis-4-methylcyclohexyl)oxy)naphthalen-2-yl)ethyl)-8-azabicyclo[3.2.1]octane-3-carboxylic acid] | ≤ 0.25 µM
O=C(O)C1CC2CCC(C1)N2Cc1cc2c(C(F)(F)F)c(O[C@H]3CC[C@@H](C(F)(F)F)CC3)ccc2cc1F (stereo partly drawn) [Example 141, 8-((3-fluoro-8-(trifluoromethyl)-7-((cis-4-(trifluoromethyl)cyclohexyl)oxy)naphthalen-2-yl)methyl)-8-azabicyclo[3.2.1]octane-3-carboxylic acid] | ≤ 0.1 µM
CC[C@H]1CC[C@@H](Oc2ccc3ccc(C(C)N4C5CCCC4CC(C(=O)O)C5)cc3c2Cl)CC1 (stereo partly drawn) [Example 66, 9-(1-(8-chloro-7-((cis-4-ethylcyclohexyl)oxy)naphthalen-2-yl)ethyl)-9-azabicyclo[3.3.1]nonane-3-carboxylic acid] | ≤ 0.25 µM
N#Cc1c(O[C@H]2CC[C@@H](C(F)(F)F)CC2)ccc2ccc(CN3C4CCC3CC(C(=O)O)C4)cc12 (stereo partly drawn) [Example 34, 8-((8-cyano-7-((cis-4-(trifluoromethyl)cyclohexyl)oxy)naphthalen-2-yl)methyl)-8-azabicyclo[3.2.1]octane-3-carboxylic acid] | ≤ 0.25 µM
CC[C@H]1CC[C@@H](Oc2ccc3ccc([C@@H](C)N4C5CCCC4CC(C(=O)O)C5)cc3c2C(F)(F)F)CC1 (stereo partly drawn) [Example 133b, 9-((R)-1-(7-((cis-4-ethylcyclohexyl)oxy)-8-(trifluoromethyl)naphthalen-2-yl)ethyl)-9-azabicyclo[3.3.1]nonane-3-carboxylic acid] | ≤ 0.25 µM
CCC(c1ccc2ccc(O[C@H]3CC[C@@H](C)CC3)c(Cl)c2c1)N1C2CCC1CC(C(=O)O)C2 (stereo partly drawn) [Example 95, 8-(1-(8-chloro-7-((cis-4-methylcyclohexyl)oxy)naphthalen-2-yl)propyl)-8-azabicyclo[3.2.1]octane-3-carboxylic acid] | ≤ 0.5 µM
CC[C@H]1CC[C@@H](Oc2ccc3ccc(C(C)N4C5CCCC4CC(C(=O)O)C5)cc3c2C#N)CC1 (stereo partly drawn) [Example 74, 9-(1-(8-cyano-7-((cis-4-ethylcyclohexyl)oxy)naphthalen-2-yl)ethyl)-9-azabicyclo[3.3.1]nonane-3-carboxylic acid] | ≤ 0.1 µM
C[C@H](c1ccc2ccc(O[C@H]3CC[C@@H](C(F)(F)F)CC3)c(C(F)(F)F)c2c1)N1C2CCC1CC(C(=O)O)C2 (stereo partly drawn) [Example 12b, 8-{(R)-1-[7-(cis-4-trifluoromethyl-cyclohexyloxy)-8-trifluoromethyl-naphthalen-2-yl]-ethyl}-8-aza-bicyclo[3.2.1]octane-3-carboxylic acid] | ≤ 0.1 µM
CCC(c1ccc2ccc(O[C@H]3CC[C@@H](C)CC3)c(C(F)(F)F)c2c1)N1C2CCCC1CC(C(=O)O)C2 (stereo partly drawn) [Example 104, 9-(1-(7-((cis-4-methylcyclohexyl)oxy)-8-(trifluoromethyl)naphthalen-2-yl)propyl)-9-azabicyclo[3.3.1]nonane-3-carboxylic acid] | ≤ 0.25 µM
CC(C)[C@H]1CC[C@@H](Oc2ccc3ccc(CN4C5CCC4CC(C(=O)O)C5)cc3c2C(F)(F)F)CC1 (stereo partly drawn) [Example 107, 8-((7-((cis-4-isopropylcyclohexyl)oxy)-8-(trifluoromethyl)naphthalen-2-yl)methyl)-8-azabicyclo[3.2.1]octane-3-carboxylic acid] | ≤ 0.1 µM
CC(c1ccc2ccc(O[C@H]3CC[C@@H](C(F)(F)F)CC3)c(C(F)F)c2c1)N1C2CCC1CC(C(=O)O)C2 (stereo partly drawn) [Example 42, 8-(1-(8-(difluoromethyl)-7-((cis-4-(trifluoromethyl)cyclohexyl)oxy)naphthalen-2-yl)ethyl)-8-azabicyclo[3.2.1]octane-3-carboxylic acid] | ≤ 0.1 µM
